In ChEMBL document CHEMBL1201862, “PubChem BioAssay data set” (2004):
Calls of active or inactive are those of the source.

How the values were obtained:
[1] = target: T1, Heat shock factor protein 1 (Mus musculus, UniProt P38532); assay: inhibition of MG132-induced HSE-luciferase signal, confirmation, cell-based, NIH3T3, luminescence, dose retest (AID 2382); format: functional;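 also: NIH3T3 fibroblasts with HSF1-driven luciferase reporter stressed by proteasome inhibitor MG132; luminescence from HSF1-driven luciferase expression after 8 hours of MG132 stress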
T1 sequence (P38532 whole entry): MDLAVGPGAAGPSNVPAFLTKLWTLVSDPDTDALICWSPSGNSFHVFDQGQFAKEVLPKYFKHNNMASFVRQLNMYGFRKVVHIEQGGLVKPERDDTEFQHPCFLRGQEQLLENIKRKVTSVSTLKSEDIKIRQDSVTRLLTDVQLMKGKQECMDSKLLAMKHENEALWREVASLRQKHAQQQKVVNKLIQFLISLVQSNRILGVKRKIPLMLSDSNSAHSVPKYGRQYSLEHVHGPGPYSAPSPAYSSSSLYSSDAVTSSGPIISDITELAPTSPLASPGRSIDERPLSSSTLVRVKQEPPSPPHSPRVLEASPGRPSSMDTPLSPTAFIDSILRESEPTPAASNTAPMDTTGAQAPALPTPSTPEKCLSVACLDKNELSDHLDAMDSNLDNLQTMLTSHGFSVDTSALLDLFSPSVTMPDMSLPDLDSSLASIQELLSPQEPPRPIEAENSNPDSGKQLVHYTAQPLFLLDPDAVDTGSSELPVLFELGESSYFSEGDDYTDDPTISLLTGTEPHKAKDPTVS

[2] = target: Luciferin 4-monooxygenase (Photinus pyralis, UniProt P08659); assay: firefly luciferase enzyme inhibitors, dose response, biochemical, luminescence (AID 1891)
[3] = Luminescence Cell-Based Dose Confirmation HTS to Identify Inhibitors of Platelet Dense Granule Release. [Related pubchem assays: 1663 (Primary HTS), 1678 (Summary of Project)]; format: functional
[4] = target: Intestinal-type alkaline phosphatase (Homo sapiens, UniProt P09923); assay: activation of human intestinal alkaline phosphatase – biochemical, dose response (AID 488873); format: functional
[5] = target: Intestinal-type alkaline phosphatase (Mus musculus, UniProt P24822); assay: PubChem AID 488785; format: functional
[6] = target: T2, Alkaline phosphatase, tissue-nonspecific isozyme (Homo sapiens, UniProt P05186); assay: TNAP enzyme inhibition by screening hits, dose response, selectivity assay for mouse IAP inhibitor project, biochemical, human TNAP, uHTS hits (AID 488906); format: functional
T2 sequence (P05186 whole entry): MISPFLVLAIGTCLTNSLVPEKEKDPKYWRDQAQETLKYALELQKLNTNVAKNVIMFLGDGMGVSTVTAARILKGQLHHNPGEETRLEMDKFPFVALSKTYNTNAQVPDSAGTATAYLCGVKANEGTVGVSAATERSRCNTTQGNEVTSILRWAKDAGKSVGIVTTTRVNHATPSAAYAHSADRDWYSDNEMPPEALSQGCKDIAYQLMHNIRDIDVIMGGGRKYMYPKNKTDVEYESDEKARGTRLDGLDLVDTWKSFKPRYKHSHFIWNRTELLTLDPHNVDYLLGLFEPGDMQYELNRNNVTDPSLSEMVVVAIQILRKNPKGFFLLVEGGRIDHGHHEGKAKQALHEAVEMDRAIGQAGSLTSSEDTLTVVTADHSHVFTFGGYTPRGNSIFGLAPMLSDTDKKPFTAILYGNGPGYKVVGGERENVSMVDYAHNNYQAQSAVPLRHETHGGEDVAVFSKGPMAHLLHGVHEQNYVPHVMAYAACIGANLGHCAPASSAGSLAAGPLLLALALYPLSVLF

[7] = target: T3, Runt-related transcription factor 1/Core-binding factor subunit beta (Homo sapiens, UniProt Q01196+Q13951); assay: inhibitors of RUNX1 Runt–CBFb-SMMHC binding, primary screen, biochemical, FRET, Cerulean-Runt, Venus-CBFb-SMMHC, uHTS (AID 1434); format: protein assay;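 also: partner is the CBFb-SMMHC leukemia fusion protein rather than wild-type CBFb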
[8] = target: T3, Runt-related transcription factor 1/Core-binding factor subunit beta; assay: inhibitors of RUNX1 Runt–CBFb-SMMHC binding, biochemical, TR-FRET (AID 1438); format: protein assay
[9] = Luminescence Cell-Based Dose Response HTS to Identify Inhibitors of Luciferase Translation or Activity in H4-C Neuroglioblastoma Cells. [Related pubchem assays: 1813 (Primary HTS), 1827 (Project Summary)]; format: functional
[10] = Luminescence Cell-Based Dose Response HTS to Identify Activators of Luciferase Translation or Activity in H4-C Neuroglioblastoma Cells. [Related pubchem assays: 1829 (Project Summary), 1814 (Primary HTS)]; format: functional
[11] = inhibitors of firefly luciferase expression or activity, dose response, H4 neuroglioma cells, luminescence (AID 1990); format: functional, cell-based
[12] = luciferase reporter signal reduction – luminescence, H4-C neuroglioblastoma cells, dose response (AID 2458); format: functional, cell-based;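 also: H4 neuroglioblastoma cells stably carrying a luciferase reporter gene fusion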
[13] = Luminescence Cell-Based Dose Retest to Confirm Activators of 5'UTR Stem-Loop Driven Alpha-Synuclein mRNA Translation in H4 Neuroglioblastoma Cells. [Related pubchem assays (depositor defined):AID1813, AID1829]; format: functional
[14] = Luminescence Cell-Based Dose Response HTS to Identify Activators of 5'UTR Stem-Loop Driven Prion Protein mRNA Translation in H4-C Neuroglioblastoma Cells. [Related pubchem assays: 1829 (Project Summary), 1814 (Primary HTS)]; format: functional
[15] = Luminescence Cell-Based Dose HTS Response to Identify Inhibitors of 5'UTR Stem-Loop Driven Prion Protein mRNA Translation in H4-C Neuroglioblastoma Cells. [Related pubchem assays (depositor defined):AID1814, AID1827]; format: functional
cells [16] = format: functional, cell-based
[17] = Luminescence Cell-Based Dose Response HTS to Identify Inhibitors of 5'UTR Stem-Loop Driven Prion Protein mRNA Translation in H4 Neuroglioblastoma Cells. [Related pubchem assays: 1827 (Project Summary), 1813 (Primary HTS)]; format: functional
[18] = inhibitors of SNCA 5'UTR-driven reporter translation, confirmation, H4 neuroglioma cells, luminescence (AID 1988); format: functional, cell-based
[19] = Luminescence Cell-Based Dose Confirmation HTS to Identify Inhibitors of 5'UTR Stem-Loop Driven Alpha-Synuclein mRNA Translation in H4 Neuroglioblastoma Cells. [Related pubchem assays: 1827 (Project Summary), 1813 (Primary HTS)]; format: functional
[20] = inhibitors of SNCA 5'UTR-driven translation, confirmation, luminescence, H4 neuroglioblastoma cells, dose confirmation (AID 2454); format: functional, cell-based;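 also: H4 neuroglioblastoma cells carrying an alpha-synuclein 5'UTR luciferase reporter; potency for inhibition of the luciferase signal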
[21] = cytotoxicity in HEK-293T cells, dose response, cytotoxicity control for TCR NF-kB inhibitor project, luminescence, T-cell screen hits (AID 489026); format: functional, cell-based;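 also: cells exposed to compound about 14 hours before the viability readout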
[22] = target: T4, RNA-binding protein pos-1 (Caenorhabditis elegans, UniProt G5EF15); assay: inhibitors of POS-1/mex-3 RNA binding, dose response, biochemical, fluorescence polarization (AID 1964);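 also: purified POS-1 fused to maltose binding protein made in E. coli; potency of compounds blocking POS-1 binding to fluorescent RNA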
T4 sequence (G5EF15 whole entry): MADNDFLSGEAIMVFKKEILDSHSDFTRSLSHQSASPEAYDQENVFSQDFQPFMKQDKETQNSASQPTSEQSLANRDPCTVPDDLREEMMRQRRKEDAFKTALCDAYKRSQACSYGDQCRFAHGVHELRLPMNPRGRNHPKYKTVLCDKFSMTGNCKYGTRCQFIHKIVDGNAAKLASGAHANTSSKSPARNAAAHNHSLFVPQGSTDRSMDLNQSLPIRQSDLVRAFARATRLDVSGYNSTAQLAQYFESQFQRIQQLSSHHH

[23] = target: T5, Zinc finger protein mex-5 (Caenorhabditis elegans, UniProt Q9XUB2); assay: MEX-5/TCR-2 RNA interaction inhibitors, dose response, biochemical, C. elegans, fluorescence polarization (AID 1960)
T5 sequence (Q9XUB2 whole entry): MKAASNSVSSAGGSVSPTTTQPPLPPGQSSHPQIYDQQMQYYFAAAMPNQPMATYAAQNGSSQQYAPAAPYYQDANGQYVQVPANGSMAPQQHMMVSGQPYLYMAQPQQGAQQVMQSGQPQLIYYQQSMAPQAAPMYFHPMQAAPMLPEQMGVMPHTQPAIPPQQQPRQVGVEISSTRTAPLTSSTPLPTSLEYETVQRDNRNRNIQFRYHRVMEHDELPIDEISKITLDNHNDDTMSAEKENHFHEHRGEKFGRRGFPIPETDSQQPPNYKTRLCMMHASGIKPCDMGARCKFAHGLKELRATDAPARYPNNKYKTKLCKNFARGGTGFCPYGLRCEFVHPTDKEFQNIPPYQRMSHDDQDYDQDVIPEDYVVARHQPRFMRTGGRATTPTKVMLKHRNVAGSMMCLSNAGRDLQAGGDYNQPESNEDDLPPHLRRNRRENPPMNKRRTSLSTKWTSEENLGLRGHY

[24] = target: Induced myeloid leukemia cell differentiation protein Mcl-1 (Homo sapiens, UniProt Q07820); assay: MCL1-BIM BH3 interaction inhibitors, dose response, biochemical, fluorescence polarization, BIM-BH3 peptide, 1536-well (AID 2217)
Bcl-2-like protein 1 = Bcl-2-like protein 1 (Homo sapiens, UniProt Q07817); assay: BCL-XL inhibitors, dose response, selectivity assay for MCL1 inhibitor project, biochemical, fluorescence polarization, 1536-well (AID 2218)
Caspase-3 = target: T6, Caspase-3 (Homo sapiens, UniProt P42574); assay: procaspase-3 activators, dose response, biochemical, absorbance (AID 489014)
T6 sequence (P42574 whole entry): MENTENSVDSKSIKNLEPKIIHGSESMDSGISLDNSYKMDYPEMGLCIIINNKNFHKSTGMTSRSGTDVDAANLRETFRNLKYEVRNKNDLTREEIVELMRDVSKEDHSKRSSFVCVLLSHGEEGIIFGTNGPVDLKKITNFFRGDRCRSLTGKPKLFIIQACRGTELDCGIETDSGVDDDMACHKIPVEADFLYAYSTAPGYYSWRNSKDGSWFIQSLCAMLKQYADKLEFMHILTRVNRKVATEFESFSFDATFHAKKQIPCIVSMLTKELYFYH

[25] = Luminescence Cell-Based Dose Retest to Confirm Inhibitors of Cancer Stem Cells. [Related pubchem assays (depositor defined):AID2717, AID2721]; format: functional; conditions: Homo sapiens
Caspase-7 = Caspase-7 (Homo sapiens, UniProt P55210); assay: procaspase-7 activators, dose response, counter-screen for procaspase-3 activator project, biochemical, absorbance (AID 489013)
[26] = target: T7, Voltage-dependent T-type calcium channel subunit alpha-1H (Homo sapiens, UniProt O95180); assay: Cav3.2 T-type channel inhibitors, synthesized analogs, SAR follow-up, cell-based, synthetic library set 2, HEK293 HH8, Fluo-4 (AID 493023); format: functional
[27] = target: T8, Tyrosine-protein phosphatase non-receptor type 7 (Homo sapiens, UniProt P35236); assay: HePTP (PTPN7) phosphatase inhibitor potency, SAR follow-up, biochemical, set 2 (AID 449736); format: functional
T8 sequence (P35236 whole entry): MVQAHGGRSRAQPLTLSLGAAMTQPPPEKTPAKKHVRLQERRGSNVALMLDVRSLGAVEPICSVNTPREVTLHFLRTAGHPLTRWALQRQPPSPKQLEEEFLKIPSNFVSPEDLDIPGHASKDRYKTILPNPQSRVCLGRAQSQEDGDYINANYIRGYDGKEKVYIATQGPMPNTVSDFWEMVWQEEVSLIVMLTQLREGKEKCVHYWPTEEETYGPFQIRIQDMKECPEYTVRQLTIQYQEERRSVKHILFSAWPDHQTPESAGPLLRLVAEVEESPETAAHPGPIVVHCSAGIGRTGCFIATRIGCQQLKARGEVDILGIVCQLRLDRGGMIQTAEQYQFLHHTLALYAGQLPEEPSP

[28] = target: T7, Voltage-dependent T-type calcium channel subunit alpha-1H; assay: Cav3.2 T-type channel inhibitors, cell-based, synthetic library set 1, calcium flux (AID 493022); format: functional
Hexokinase = Hexokinase (Trypanosoma brucei, UniProt Q38C41); assay: Confirmation assay for inhibitors of Trypanosoma brucei hexokinase 1-Analogue-first series. [Related pubchem assays (depositor defined):AID1430, AID1632, AID2516, AID2560, AID2579, AID2600, AID449725, AID492951]; format: functional
[29] = THP-1 cell cytotoxicity, dose response, cytotoxicity control for non-replicating M. tuberculosis project (AID 489025); format: functional
[30] = HepG2 cell cytotoxicity, dose response, cytotoxicity control for non-replicating M. tuberculosis project (AID 489018); format: functional; conditions: Mycobacterium tuberculosis
cells [31] = format: functional
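For AC50 in this document: cells exposed to compound for roughly 70 hours or longer before luminescence read.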

T3 sequence (Q01196 whole entry, the tested form may be a part): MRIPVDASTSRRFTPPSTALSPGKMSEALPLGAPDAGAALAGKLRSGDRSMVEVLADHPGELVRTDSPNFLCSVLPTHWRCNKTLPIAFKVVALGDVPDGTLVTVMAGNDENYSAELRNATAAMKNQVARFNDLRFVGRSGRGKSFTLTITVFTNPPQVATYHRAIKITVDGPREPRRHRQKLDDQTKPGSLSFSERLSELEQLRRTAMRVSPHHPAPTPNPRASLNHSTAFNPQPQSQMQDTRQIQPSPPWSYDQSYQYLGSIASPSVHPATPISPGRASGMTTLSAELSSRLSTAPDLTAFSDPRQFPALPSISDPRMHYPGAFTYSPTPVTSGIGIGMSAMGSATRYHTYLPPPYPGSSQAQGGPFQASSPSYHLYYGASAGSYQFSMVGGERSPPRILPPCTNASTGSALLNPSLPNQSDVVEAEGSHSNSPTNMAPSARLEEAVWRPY
T3 sequence (Q13951 whole entry, the tested form may be a part): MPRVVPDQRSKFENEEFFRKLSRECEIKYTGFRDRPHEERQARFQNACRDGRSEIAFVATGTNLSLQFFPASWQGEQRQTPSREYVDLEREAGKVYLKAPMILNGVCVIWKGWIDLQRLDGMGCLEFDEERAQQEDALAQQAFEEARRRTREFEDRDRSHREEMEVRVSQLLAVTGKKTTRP
T7 sequence (O95180 whole entry): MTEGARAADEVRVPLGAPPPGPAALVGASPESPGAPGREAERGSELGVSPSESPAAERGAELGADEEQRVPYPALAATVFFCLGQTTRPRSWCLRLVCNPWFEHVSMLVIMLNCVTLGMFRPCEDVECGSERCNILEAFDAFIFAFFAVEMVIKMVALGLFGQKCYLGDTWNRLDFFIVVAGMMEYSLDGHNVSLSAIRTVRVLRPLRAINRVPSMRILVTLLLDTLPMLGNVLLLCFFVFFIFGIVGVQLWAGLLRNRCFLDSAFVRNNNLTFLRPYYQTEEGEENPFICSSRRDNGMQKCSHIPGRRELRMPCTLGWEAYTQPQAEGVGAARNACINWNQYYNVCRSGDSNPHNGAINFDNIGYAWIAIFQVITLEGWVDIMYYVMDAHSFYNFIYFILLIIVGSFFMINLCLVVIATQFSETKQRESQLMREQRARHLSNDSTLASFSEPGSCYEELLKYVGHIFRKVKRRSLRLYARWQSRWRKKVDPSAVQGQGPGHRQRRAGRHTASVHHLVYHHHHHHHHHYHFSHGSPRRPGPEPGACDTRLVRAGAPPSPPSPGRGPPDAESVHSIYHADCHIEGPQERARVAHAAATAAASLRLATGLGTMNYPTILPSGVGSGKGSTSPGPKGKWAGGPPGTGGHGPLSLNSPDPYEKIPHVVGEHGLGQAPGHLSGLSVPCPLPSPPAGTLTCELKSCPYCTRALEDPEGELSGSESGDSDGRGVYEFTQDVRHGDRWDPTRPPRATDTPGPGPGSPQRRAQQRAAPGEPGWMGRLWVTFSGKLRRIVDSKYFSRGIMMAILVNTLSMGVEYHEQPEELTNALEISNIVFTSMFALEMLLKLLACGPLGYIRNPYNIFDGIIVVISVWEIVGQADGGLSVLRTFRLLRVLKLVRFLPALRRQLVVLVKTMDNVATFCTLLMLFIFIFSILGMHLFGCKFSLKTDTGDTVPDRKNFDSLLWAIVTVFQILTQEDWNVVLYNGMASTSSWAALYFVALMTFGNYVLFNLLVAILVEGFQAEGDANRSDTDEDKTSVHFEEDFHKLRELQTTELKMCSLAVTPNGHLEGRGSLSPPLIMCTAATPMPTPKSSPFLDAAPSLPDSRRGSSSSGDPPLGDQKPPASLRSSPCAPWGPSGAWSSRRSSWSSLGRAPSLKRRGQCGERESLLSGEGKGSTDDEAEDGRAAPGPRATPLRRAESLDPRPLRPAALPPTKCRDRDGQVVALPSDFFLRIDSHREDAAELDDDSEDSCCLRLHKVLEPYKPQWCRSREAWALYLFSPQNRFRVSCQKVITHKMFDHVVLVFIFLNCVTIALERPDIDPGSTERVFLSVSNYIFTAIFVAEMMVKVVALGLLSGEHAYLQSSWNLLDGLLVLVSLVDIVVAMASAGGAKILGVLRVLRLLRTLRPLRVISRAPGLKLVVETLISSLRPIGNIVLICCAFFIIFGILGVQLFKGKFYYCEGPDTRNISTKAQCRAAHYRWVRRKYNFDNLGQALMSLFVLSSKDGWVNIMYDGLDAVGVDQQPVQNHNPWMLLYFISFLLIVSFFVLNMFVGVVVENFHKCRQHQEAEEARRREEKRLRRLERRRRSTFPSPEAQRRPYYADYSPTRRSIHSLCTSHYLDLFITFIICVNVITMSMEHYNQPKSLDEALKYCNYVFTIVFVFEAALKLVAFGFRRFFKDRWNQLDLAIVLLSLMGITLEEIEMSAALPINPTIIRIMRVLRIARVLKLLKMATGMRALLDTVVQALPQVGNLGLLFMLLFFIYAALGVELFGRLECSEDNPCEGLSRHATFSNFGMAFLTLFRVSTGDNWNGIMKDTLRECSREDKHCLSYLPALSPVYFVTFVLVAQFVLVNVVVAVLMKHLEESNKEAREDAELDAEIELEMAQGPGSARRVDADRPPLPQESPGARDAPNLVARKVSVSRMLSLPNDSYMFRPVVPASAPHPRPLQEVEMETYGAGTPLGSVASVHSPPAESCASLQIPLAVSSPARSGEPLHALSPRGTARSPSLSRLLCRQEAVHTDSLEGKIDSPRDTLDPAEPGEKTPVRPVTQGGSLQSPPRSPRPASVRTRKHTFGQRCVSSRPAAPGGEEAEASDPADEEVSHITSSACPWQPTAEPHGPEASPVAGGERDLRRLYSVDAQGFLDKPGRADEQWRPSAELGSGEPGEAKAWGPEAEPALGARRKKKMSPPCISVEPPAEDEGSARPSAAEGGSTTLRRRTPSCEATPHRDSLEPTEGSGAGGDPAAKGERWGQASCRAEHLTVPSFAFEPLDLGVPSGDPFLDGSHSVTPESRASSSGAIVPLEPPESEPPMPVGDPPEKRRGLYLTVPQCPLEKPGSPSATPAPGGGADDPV
Sequence of Hexokinase (Q38C41 whole entry): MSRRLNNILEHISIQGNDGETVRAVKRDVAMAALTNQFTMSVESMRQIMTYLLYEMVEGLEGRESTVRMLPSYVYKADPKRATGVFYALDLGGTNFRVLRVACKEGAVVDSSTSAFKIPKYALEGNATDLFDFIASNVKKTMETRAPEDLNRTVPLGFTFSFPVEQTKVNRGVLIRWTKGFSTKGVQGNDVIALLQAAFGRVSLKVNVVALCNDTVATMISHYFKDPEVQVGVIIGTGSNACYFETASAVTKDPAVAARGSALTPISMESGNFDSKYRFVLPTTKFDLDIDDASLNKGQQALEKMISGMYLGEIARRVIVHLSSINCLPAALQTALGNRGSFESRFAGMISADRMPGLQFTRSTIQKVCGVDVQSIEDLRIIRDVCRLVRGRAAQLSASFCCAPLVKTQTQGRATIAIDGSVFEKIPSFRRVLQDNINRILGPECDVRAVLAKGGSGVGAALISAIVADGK
Sequence of Luciferin 4-monooxygenase (P08659 whole entry): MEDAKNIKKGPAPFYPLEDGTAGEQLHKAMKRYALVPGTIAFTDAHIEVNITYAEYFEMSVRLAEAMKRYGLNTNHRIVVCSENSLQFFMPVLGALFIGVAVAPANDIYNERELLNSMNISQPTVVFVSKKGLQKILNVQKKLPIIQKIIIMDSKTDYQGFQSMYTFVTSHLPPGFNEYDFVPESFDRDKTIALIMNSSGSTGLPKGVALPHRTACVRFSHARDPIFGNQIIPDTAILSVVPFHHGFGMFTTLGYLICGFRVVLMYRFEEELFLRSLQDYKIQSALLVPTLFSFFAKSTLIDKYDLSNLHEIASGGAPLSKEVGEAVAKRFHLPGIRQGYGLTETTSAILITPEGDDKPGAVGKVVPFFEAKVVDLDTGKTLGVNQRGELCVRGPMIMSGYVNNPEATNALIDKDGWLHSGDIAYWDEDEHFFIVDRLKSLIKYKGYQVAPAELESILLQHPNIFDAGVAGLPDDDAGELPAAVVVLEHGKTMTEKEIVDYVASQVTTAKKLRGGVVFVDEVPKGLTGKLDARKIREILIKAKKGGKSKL
Sequence of Induced myeloid leukemia cell differentiation protein Mcl-1 (Q07820 whole entry): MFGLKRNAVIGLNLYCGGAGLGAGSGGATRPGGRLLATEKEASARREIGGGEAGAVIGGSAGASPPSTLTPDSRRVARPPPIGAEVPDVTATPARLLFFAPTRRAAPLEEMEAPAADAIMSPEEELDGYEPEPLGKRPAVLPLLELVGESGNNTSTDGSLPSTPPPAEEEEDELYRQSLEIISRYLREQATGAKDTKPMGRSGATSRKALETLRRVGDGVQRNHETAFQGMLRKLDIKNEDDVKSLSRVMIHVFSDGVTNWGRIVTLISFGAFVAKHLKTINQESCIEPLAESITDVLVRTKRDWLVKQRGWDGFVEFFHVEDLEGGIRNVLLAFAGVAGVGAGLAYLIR
Sequence of Intestinal-type alkaline phosphatase (Homo sapiens, UniProt P09923) (P09923 whole entry): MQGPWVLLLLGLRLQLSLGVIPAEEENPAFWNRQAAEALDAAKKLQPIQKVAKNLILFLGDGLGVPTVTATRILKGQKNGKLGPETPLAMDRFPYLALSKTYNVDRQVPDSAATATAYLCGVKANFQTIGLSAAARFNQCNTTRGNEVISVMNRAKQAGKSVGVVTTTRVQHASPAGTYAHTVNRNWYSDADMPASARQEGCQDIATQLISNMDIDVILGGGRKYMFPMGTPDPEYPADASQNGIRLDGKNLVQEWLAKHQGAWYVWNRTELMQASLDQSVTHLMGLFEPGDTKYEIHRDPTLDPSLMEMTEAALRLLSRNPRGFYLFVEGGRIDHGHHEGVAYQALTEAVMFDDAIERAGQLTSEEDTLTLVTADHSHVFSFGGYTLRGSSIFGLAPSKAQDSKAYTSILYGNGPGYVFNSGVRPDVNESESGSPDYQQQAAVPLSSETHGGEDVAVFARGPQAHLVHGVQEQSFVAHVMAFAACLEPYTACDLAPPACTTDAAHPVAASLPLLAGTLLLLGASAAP

CN(C)c1ccc(N=Nc2nc3ccccc3n2C)cc1
EC50 [1]: 0.429 µM (inconclusive)
EC50 [2]: 0.213 µM (active)
EC50 [3]: 0.208 µM (active)
EC50 [4]: > 100 µM (inactive)
IC50 [5]: 27.6 µM (active)
IC50 [6]: 36.9 µM (active)

N#Cc1c2c(c(NCc3ccco3)n3c1nc1ccccc13)CCC2
IC50 [7]: > 100 µM (inactive)
IC50 [8]: > 100 µM (inactive)

CCOC(=O)COc1cccc2c(=O)n(CC(=O)NCc3ccc(F)cc3)ccc12
EC50 [9]: 1.36 µM (active)
EC50 [10]: 1.36 µM (inconclusive)
EC50 [11]: 12.6 µM (active)
EC50 [12]: > 12 µM (inconclusive)
EC50 [13]: 26.6 µM (inconclusive)
EC50 [14]: 22.4 µM (inconclusive)
EC50 [15]: 22.4 µM (active)
EC50 (cells [16]): 2.36 µM (active)
EC50 [17]: > 120 µM (not active)
EC50 [18]: < 0.1 µM (active)
EC50 [19]: 26.6 µM (active)
EC50 [20]: 1.51 µM (active)
IC50 [21]: > 80 µM (inactive)

COC(=O)c1ccccc1NCc1cc(=O)oc2cc(O)c(O)cc12
EC50 [22]: 19 µM (inconclusive)
EC50 [23]: 18.4 µM (inconclusive)
IC50 [24]: > 4.03 µM (active)
IC50 (Bcl-2-like protein 1): > 109 µM (not active)
EC50 (Caspase-3): > 1.05 µM (active)
AC50 [25]: 6.97 µM (active)
EC50 (Caspase-7): > 85.2 µM (inactive)

CC(C)(C)CCN1CCC[C@@H](NC(=O)COc2ccccc2Cl)C1
EC50 [26]: 10 µM (active)

Cc1ccc(-n2c(N)c(C(=O)Nc3ccccc3F)sc2=S)cc1C
IC50 [27]: 50.5 µM (active)

O=C(COc1ccc(F)cc1Cl)Nc1nnc(-c2ccc3c(c2)OCO3)o1
EC50 [28]: 2.1 µM (active)

O=C(Cn1sc2ccccc2c1=O)Nc1cccc(C(F)(F)F)c1
IC50 (Hexokinase): > 25 µM (inactive)

CCOc1ccc(C(=O)Nc2nc3ccccc3[nH]2)cc1OCC
CC50 [29]: > 40 µM (active)
CC50 [30]: 18.8 µM (active)
IC50 (cells [31]): 12 µM (active)
